According to ChEMBL document CHEMBL1201862, “PubChem BioAssay data set” (2004):
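96-well plates; 48 h exposure; 5 concentrations. Endpoints by linear interpolation between flanking doses. Not reached: highest tested concentration assigned. Abbreviation: GI50, concentration required for 50% inhibition of growth.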 Calls of active or inactive are those of the source. Cut-off read from the data, not from the text of the source: active = GI50 up to about 1.1 µM and inactive = higher.

Columns and labels:
Assay in all cases: DTP human tumour cell line panel, 48 h
CCRF-CEM = system: CCRF-CEM
DLD-1 = system: DLD-1
DMS-273 = system: DMS-273
HCC 2998 = system: HCC 2998
HOP-92 = system: HOP-92
HT-29 = system: HT-29
KM-20L2 = system: KM-20L2
KM12 = system: KM12
M19-MEL = system: M19-MEL
MOLT-4 = system: MOLT-4
Malme-3M = system: Malme-3M
NCI-H23 = system: NCI-H23
OVCAR-3 = system: OVCAR-3
OVCAR-8 = system: OVCAR-8
RPMI-8226 = system: RPMI-8226
RXF 393 = system: RXF 393
SN12C = system: SN12C
SNB-75 = system: SNB-75
UACC-257 = system: UACC-257
UO-31 = system: UO-31

SMILES	GI50 (CCRF-CEM)	GI50 (DLD-1)	GI50 (DMS-273)	GI50 (HCC 2998)	GI50 (HOP-92)	GI50 (HT-29)	GI50 (KM-20L2)	GI50 (KM12)	GI50 (M19-MEL)	GI50 (MOLT-4)	GI50 (Malme-3M)	GI50 (NCI-H23)	GI50 (OVCAR-3)	GI50 (OVCAR-8)	GI50 (RPMI-8226)	GI50 (RXF 393)	GI50 (SN12C)	GI50 (SNB-75)	GI50 (UACC-257)	GI50 (UO-31)
CN(C)CCNC(=O)c1cccc2[nH]c(-c3ccccn3)nc12	23.5 µM (inactive)	33.7 µM (inactive)	26 µM (inactive)	49 µM (inactive)	19.6 µM (inactive)	19.6 µM (inactive)	25.6 µM (inactive)	41.6 µM (inactive)	29.7 µM (inactive)	20.7 µM (inactive)	24.9 µM (inactive)	43.7 µM (inactive)	30.7 µM (inactive)	27.9 µM (inactive)	21.7 µM (inactive)	51.2 µM (inactive)	34.8 µM (inactive)	21.2 µM (inactive)	28.6 µM (inactive)	16.8 µM (inactive)
CCOC(=O)C(C#N)(Cc1c[nH]c2ccccc12)NC(C)=O (stereo not given)	> 100 µM (inactive)	> 100 µM (inactive)	> 100 µM (inactive)	> 100 µM (inactive)	> 100 µM (inactive)	> 100 µM (inactive)	> 100 µM (inactive)	> 100 µM (inactive)	> 100 µM (inactive)	> 100 µM (inactive)	> 100 µM (inactive)	> 100 µM (inactive)	> 100 µM (inactive)	> 100 µM (inactive)	> 100 µM (inactive)	> 100 µM (inactive)	> 100 µM (inactive)	> 100 µM (inactive)	> 100 µM (inactive)	> 100 µM (inactive)
CCC(C)C1NC(=O)CNC(=O)C2Cc3c([nH]c4cc(O)ccc34)[S+]([O-])CC(NC(=O)CNC1=O)C(=O)NC(CC(=O)O)C(=O)N1CC(O)CC1C(=O)NC(C(C)C(O)CO)C(=O)N2 (stereo not given)	6.24 µM (inactive)	12.4 µM (inactive)	2.23 µM (inactive)	0.653 µM (active)	1.68 µM (inactive)	28.8 µM (inactive)	31.6 µM (inactive)	6.46 µM (inactive)	3.24 µM (inactive)	3.72 µM (inactive)	1.19 µM (inactive)	1.83 µM (inactive)	2.47 µM (inactive)	3.7 µM (inactive)	20.3 µM (inactive)	0.579 µM (active)	4.63 µM (inactive)	0.918 µM (active)	2.44 µM (inactive)	1.55 µM (inactive)
